According to patent US9958451B2, “Near-infrared fluorescent dyes with large stokes shifts” (Portland State University, priority 2011, dated 2018):
Marks after values point to notes of the source that are not given here.

Test: Spectral properties of rhodamine bis-boronic acids and precursors in DMSO:buffer
Assay type: physicochemical
Design: Brightness: scale not given here
Method: Characterization: The spectral properties of compounds 50-53 were determined. Absorption and fluorescence spectra of solutions of the rhodamine bis-boronic acids 51 and 53, and their respective precursors 50 and 52, are shown in FIGS. 27A-C (in DMSO:buffer 1:9) and 27D-F (DMSO:buffer 1:1). […] Excitation and emission spectra were normalized to their absorbance at the excitation wavelength, and are proportional to quantum yield.

[1] = DMSO:buffer 1:1, pH 7.4 phosphate buffer 12.5 mM
[2] = DMSO:buffer 1:9, pH 7.4 phosphate buffer 12.5 mM

| Quantum yield (DMSO buffer 1:9) [%] | Red shift of maximum absorption compared to rhodamine 110 (DMSO buffer 1:9) [nm] | Red shift of maximum emission compared to rhodamine 110 (DMSO buffer 1:9) [nm] | Brightness (DMSO:buffer 1:1) | Em (DMSO:buffer 1:1) [nm] | Ex (DMSO:buffer 1:1) [nm] | Q.Y. (DMSO:buffer 1:1) | ε (DMSO:buffer 1:1) [M⁻¹ cm⁻¹] | Abs [1] [nm] | Brightness (DMSO:buffer 1:9) | Em (DMSO:buffer 1:9) [nm] | Ex (DMSO:buffer 1:9) [nm] | Q.Y. (DMSO:buffer 1:9) | ε (DMSO:buffer 1:9) [M⁻¹ cm⁻¹] | Abs [2] [nm] | SMILES |
| --- | --- | --- | --- | --- | --- | --- | --- | --- | --- | --- | --- | --- | --- | --- | --- |
| 19 | 40 | ~100 | 6298 | 630 | 542 | 0.30 | 21064 | 542 | 8083 | 628 | 534 | 0.19 | 42701 | 535 | N=c1ccc2c(-c3ccccc3C(=O)O)c3ccc4cc(N)ccc4c3oc-2c1 [Compound 50, seminaphthorhodamine] |
| 10 | – | – | 121^g | 676 | 596 | 0.11 | 1081 | 602 | 1144^d | 668 | 584 | 0.10 | 11994 | 578 | N=c1ccc2c(ccc3c(-c4ccccc4C(=O)O)c4ccc5cc(N)ccc5c4oc32)c1 [Compound 52, naphthorhodamine] |
